Reference: PMC5565192, “Larrea tridentata: A novel source for anti-parasitic agents active against Entamoeba histolytica, Giardia lamblia and Naegleria fowleri” (PLoS Neglected Tropical Diseases, 2017)
pEC50: −log10 of the molar value. Where two headings read alike, the source gives them in different places.

Legend:
[1] = test system: E. histolytica, G. lamblia, and N. fowleri trophozoites; test: Antiparasitic activity, statements for all three pathogens together (CellTiter-Glo); format: cell-based; details: for antiparasitic activity against the three pathogens (in words): E. histolytica, N. fowleri trophozoites
Method: (§1) Trophozoites of E. histolytica HM1: IMSS and G. lamblia WB strains were axenically maintained in TYI-S-33 medium supplemented with penicillin (100 U/ml), streptomycin (100 μg/ml). Trophozoites of N. fowleri strain KUL were axenically cultured in Nelson’s medium supplemented with 10% FBS at 37°C [45]. All experiments were performed using trophozoites harvested during the logarithmic phase of growth. Four solvent partitioned fractions of an aqueous methanolic extract of L. tridentata and compounds 1–9 were screened for activity against E. histolytica, G. lamblia, and N. fowleri. For primary screening, the positive control for E. histolytica and G. lamblia was 5 μg/mL of metronidazole (Sigma-Aldrich) and 46 μg/mL of amphotericin B for N. fowleri (Sigma-Aldrich). Test samples were diluted to 10 mg/mL of extracts, HPLC fractions, and pure compounds in DMSO. Finally, 0.5 μL of diluted sample was transferred to white, solid bottom tissue culture 96-well plates (E&K Scientific) followed by addition of 99.5 μL trophozoites (5,000 E. histolytica and G. lamblia, and 10,000 N. fowleri) in TYI-S-33 medium or Nelson’s medium. The final concentration for test compounds was 50 μg/mL and 0.5% DMSO, which was the negative control and compound vehicle that we have shown has no effect the growth rate of trophozoites. Assay plates were incubated for 48 h at 37°C. E. histolytica and G. lamblia plates were kept in the GasPak EZ Anaerobe Gas Generating Pouch System (VWR) to maintain anaerobic condition throughout the incubation period. Screening was performed in duplicate using the CellTiter-Glo assay (Promega) and luminescence was measured using an EnVision plate reader (PerkinElmer).
(§2) The antiparasitic activity of 1–6 and 9 were confirmed by EC50 dose response experiments, using the CellTiter-Glo assay, conducted in triplicate over a concentration range from 5-to-700 μM against trophozoites (Table 3). Miltefosine and metronidazole, current drugs for the treatment of PAM and amebiasis and giardiasis were also tested in triplicate as positive controls for EC50 determination (Table 3). Dose response curves including standard deviation (SD) calculation were processed using GraphPad Prism software 5.0. Percent inhibition relative to maximum and minimum reference signal controls was calculated using the formula: % Inhibition = [(mean of Maximum Signal Reference Control—Experimental Value)/(mean of Maximum Signal Reference Control—mean of Minimum Signal Reference Control)] × 100.

[2] = test system: E. histolytica HM1: IMSS trophozoites; test: Parasite assay, CellTiter-Glo EC50 dose response, E. histolytica trophozoites; format: cell-based, Entamoeba histolytica; details: for pEC50 / EC50: 48 h; for pEC50: read-out: E. histolytica EC50; for EC50: read-out: E. histolytica pEC50 ± SE (converted)
Method: as §1, §2

[3] = test system: G. lamblia WB trophozoites; test: Parasite assay, CellTiter-Glo EC50 dose response, G. lamblia trophozoites; format: cell-based, Giardia lamblia; details: for pEC50: read-out: G. lamblia EC50; for EC50: read-out: G. lamblia pEC50 ± SE (converted); for loss of activity compared to 3, G. lamblia: SAR comparison with compound 3
Method: as §1, §2

[4] = test system: N. fowleri strain KUL trophozoites; test: Parasite assay, CellTiter-Glo EC50 dose response, N. fowleri trophozoites; format: cell-based, Naegleria fowleri; details: for pEC50: read-out: N. fowleri EC50; for EC50: read-out: N. fowleri pEC50 ± SE (converted)
Method: as §1, §2

[5] = test system: HUVEC-TERT2 cell line; test: HUVEC cell cytotoxicity (CellTiter-Glo, 48 h); format: cell-based, human; details: for fold less toxic to human cells compared to N. fowleri: HUVEC EC50 versus N. fowleri EC50, P<0.0001; for pEC50: Homo sapiens, HUVEC, 48 h, CellTiter-Glo, read-out: EC50 inhibition of HUVEC cell viability
Method: The HUVEC-TERT2 cell line was purchased from Evercyte GmbH (Vienna, Austria) and cultured and maintained in endothelial cell basal medium (Lonza) as described previously. Briefly, cells were seeded into a white 384-well solid bottom plate (Nunc, ThermoFisher) at a density of 1000 cells/well in 39 μL of media using a Janus liquid handler (PerkinElmer). Serial dilutions using 1 μL of compound 1 and 2 at varying concentrations were dispensed into each well in triplicate. After 48 h incubation, 40 μL of CellTiter-Glo reagent (Promega) was added into each well. The contents were mixed for 2 min on a microplate shaker to induce cell lysis and further incubated at room temperature for 10 min to stabilize the luminescent signal. Luminescence was measured with an EnVision plate reader (PerkinElmer) and %inhibition calculations were performed using the following formula for single-point normalization: %Inhibition = (1-Raw Sample Value/Mean of DMSO Signal Reference Value) × 100. Dose response curves including EC50 calculations were processed using GraphPad Prism software.

[6] = test system: N. fowleri cysteine protease; test: Cysteine protease activity assay in N. fowleri crude lysate (Z-Phe-Arg-AMC); format: biochemical, Naegleria fowleri; details: at 1.875 μM, total crude lysate of N. fowleri
Method: To prepare the cell lysate, N. fowleri trophozoites were removed from the culture flask surface by incubating in an ice bath for 10 min, centrifuged at 300 g for 10 min, and washed twice with PBS (pH 7.2). The cells were disrupted by four cycles of freeze thawing in PBS [51]. Protein concentration was quantified by the method of Bradford (Bio-Rad). The activity of the cysteine protease present in the crude extract after incubating in presence and absence of different concentrations of compounds 1 and 2 was assayed by the liberation of the fluorescent leaving group, 7-amino-4-methyl coumarin (AMC), from the peptide substrate Z–Phe–Arg–AMC (40 μM) (where Z is benzyloxycarbonyl, R&D Systems). The assay was performed at 25°C in an automated microtiter plate spectrofluorometer (EnVision, PerkinElmer) with excitation wavelength at 355 nm and emission wavelength at 460 nm. Enzyme samples were added to the reactivation buffer (10 mM Tris, 5 mM EDTA, 50 mM NaCl, pH 7.4, 10 mM DTT), and preincubated for 20 min at 37°C prior to the hydrolysis of substrate. The rate of substrate hydrolysis at ambient temperature was determined from the rate of increase of fluorescence, monitored on a continuously recording spectrofluorometer and measured as RFU/min/μg protein.

[7] = Entamoeba histolytica, trophozoites, minimum n = 3
[8] = Giardia duodenalis, trophozoites, 48 h, minimum n = 3
[9] = Naegleria fowleri, 48 h, trophozoites, 48 h, minimum n = 3
[10] = trophozoites, 48 h, minimum n = 3

Compound | antiparasitic activity against the three pathogens (in words) [1] | pEC50 [2, 7] | EC50 [2, 7] [µM] | pEC50 [3, 8] | EC50 [3, 8] [µM] | pEC50 [4, 9] | EC50 [4, 9] [µM] | also measured
C[C@@H]1[C@@H](C)[C@H](c2ccc(O)c(O)c2)O[C@H]1c1ccc(O)cc1 [Compound 7, 3-hydroxy-4-epi-larreatricin] | no antiparasitic activity |  |  |  |  |  |  | pEC50 ([2]; Entamoeba histolytica): < 3.78; pEC50 ([3]; Giardia duodenalis, 48 h): < 3.78; pEC50 ([4]; Naegleria fowleri, 48 h): < 3.78
C[C@H]1[C@H](c2ccc(O)c(O)c2)c2cc(O)c(O)cc2C[C@H]1C [Compound 6, 6,3'-Di-O-demethylisoguaiacin] | comparatively weak activity | 3.84 | 158 | 4.02 | 100 | 3.82 | 158 | 
Cc1ncc([N+](=O)[O-])n1CCO [Metronidazole, reference compound] |  | 5.30 | 5.01 | 5.19 | 6.31 |  |  | 
C[C@@H]1[C@H](C)[C@H](c2ccc(O)cc2)O[C@H]1c1ccc(O)c(O)c1 [Compound 8, (7R, 7’R)-7, 7’-bis(4’, 3,4-trihydroxyphenyl)-(8R, 8’S)-8, 8’-dimethyltetrahydrofuran] | no antiparasitic activity |  |  |  |  |  |  | pEC50 ([2]; Entamoeba histolytica): < 3.78; pEC50 ([3]; Giardia duodenalis, 48 h): < 3.78; pEC50 ([4]; Naegleria fowleri, 48 h): < 3.78
C[C@H]1[C@H](c2ccc(O)cc2)c2cc(O)c(O)cc2C[C@H]1C [Compound 3, Nor-3’-demethoxyisoguaiacin] |  | 4.03 | 100 | 4.31 | 50.1 | 4.14 | 79.4 | 
C[C@H](Cc1ccc(O)c(O)c1)[C@@H](C)Cc1ccc(O)c(O)c1 [Compound 1, nordihydroguairetic acid] |  | 3.99 | 100 | 4.44 | 39.8 | 4.44 | 39.8 | fold less toxic to human cells compared to N. fowleri [5]: 2.4 fold; pEC50 [5]: 4.07; inhibition of cysteine protease activity [6]: ~50%; pEC50 [4, 10]: 4.43
CCCCCCCCCCCCCCCCOP(=O)([O-])OCC[N+](C)(C)C [Miltefosine, reference compound] |  |  |  |  |  | 4.26 | 50.1 | 
COc1cc2c(cc1O)C[C@@H](C)[C@@H](C)[C@@H]2c1ccc(O)cc1 [Compound 5, 3’-Demethoxyisoguaiacin] | comparatively weak activity | 3.63 | 251 | 3.73 | 200 | 3.81 | 158 | loss of activity compared to 3, E. histolytica ([2]; SAR comparison with compound 3): ~ 3 fold; loss of activity compared to 3, G. lamblia [3]: 4 fold; loss of activity compared to 3, N. fowleri ([4]; SAR comparison with compound 3): ~ 2 fold
COc1cc([C@@H]2c3cc(O)c(O)cc3C[C@@H](C)[C@H]2C)ccc1O [Compound 4, Nor-isoguaicin] |  | 4.08 | 79.4 | 4.13 | 79.4 | 4.12 | 79.4 | pEC50 ([1]; span over E. histolytica, N. fowleri, read-out: EC50 values against all three pathogens): 4.08 to 4.13; loss of activity compared to 3, G. lamblia [3]: ~ 2 fold
COc1cc(C[C@@H](C)[C@@H](C)Cc2ccc(O)c(O)c2)ccc1O [Compound 2, 3’-O-methylnordihydroguairetic acid] |  | 3.77 | 158 | 4.42 | 39.8 | 4.42 | 39.8 | fold less toxic to human cells compared to N. fowleri [5]: 1.6 fold; pEC50 [5]: 4.23; inhibition of cysteine protease activity [6]: ~50%
3-Methoxy-6, 7, 4’-trihydroxyflavonol [Compound 9] |  |  |  |  |  |  |  | pEC50 ([2]; trophozoites, minimum n = 3): < 3.78; G. lamblia pEC50 ± SE [3, 10]: 3.8 ± 0.02; pEC50 [3, 10]: 3.82; N. fowleri pEC50 ± SE [4, 10]: 3.6 ± 0.02; pEC50 [4, 10]: 3.63
